Assay results taken from patent publication US20200071316A1, “ACTIVATORS OF THE RETINOIC ACID INDUCIBLE GENE "RIG-I" PATHWAY AND METHODS OF USE THEREOF” (Kineta Immuno-Oncology LLC, priority 2018, published 2020).
Marks after values point to notes of the source that are not given here.

Assays:
[1] = test system: THP1-Lucia ISG IRF3 −/− cells; assay: IRF3-deficient THP1-Lucia ISG IRF3 −/− reporter assay (counter-screen); type: cell-based; details: Homo sapiens, 18 h after stimulation, read-out: THP1 ISG IRF3 −/−: fold increase of luciferase activity over background; for fold induction at 10 µM: 10 μM compound
Procedure: (§1) The promotor was comprised of five IFN-stimulated response elements (ISRE) fused to an ISG54 minimal promotor which is unresponsive to NF-kB or AP-1 pathways. […] The IRF3-deficient THP1-Lucia™ ISG IRF3 −/− reporter cell line was generated by CRISPR technology from the parent THP1-Lucia™ ISG reporter cell line.
(§2) 5 THP1-Lucia™ ISG cells and IRF3-deficient THP1-Lucia™ ISG IRF3 −/− cells were differentiated with PMA (100 ng/ml) and stimulated with compounds at the indicated concentrations (5 to 20 μM), positive control, or not treated (background). Luciferase secretion was quantified using the QUANTI-Luc luciferase assay system (InvivoGen) 18 h after stimulation. Data are shown as fold increase luciferase activity over background in Table 7 and represent the IRF3-dependent ISG54 promotor activity by the THP1-Lucia™ ISG cells in response to compounds. […] The fold increase of compounds (10 μM, *20 μM, **5 μM) induced IRF3 dependent luciferase activity is indicated as follows: “−” indicates less than 2.4 fold increase; “+” indicates a 2.4-4.9 fold increase; “++” indicates a 5-9.9 fold increase; “+++” indicates a 10-19 fold increase; “++++” indicates a 20-39 fold increase; “+++++” indicates greater than or equal to 40 fold increase.

[2] = test system: RIG-I deficient CT26 RIG-1−/− cells; assay: CXCL10 secretion in RIG-I deficient CT26 RIG-1−/− cells (ELISA); type: cell-based, murine; details: 24 h
Procedure: (§3) The CT26 murine colon carcinoma cell line (ATCC) was used to evaluate the induction of CXCL10 secretion. CXCL10 is an important chemokine in tumor immune biology that recruits tumor-specific T cells to the tumor. To confirm that compound-mediated CXCL10 production was RIG-I specific, RIG-I deficient CT2-RIG-1−/− cells were generated by Kineta using CRISPR technology.
(§4) CT26 cells were seeded at a density of 1×10^4 cells per well on a 96-well tissue culture plate in 100 μL of cell culture and cells were incubated at 37° C. and 5% CO2 for 24 hr. Next, CT26 cells were treated with compounds at the indicated concentrations. CXCL10 was quantified by ELISA from supernatants taken 24 h after compound stimulation by use of the CXCL10 DuoSet ELISA kit (Cat # DY466, R&D, Minneapolis, Minn., USA) according to the manufacturer's instructions.
(§5) CXCL10 secretion by CT26 cells in response to compounds (in an amount of 5 to 20 μM) of the present disclosure is shown in Table 8. The compound-induced CXCL10 production was RIG-I dependent, since none of the compounds mediated CXCL10 secretion in RIG-I deficient CT26 RIG-1−/− cells. The compounds (10 μM, *20 μM, **5 μM) are indicated in the table as follows: “−” indicates less than 100 pg/mL; “+” indicates 100-199 pg/mL; “++” indicates 200-399 pg/mL; “+++” indicates 400-799 pg/mL; “++++” indicates 800 to 1599 pg/mL; “+++++” indicates greater than or equal to 1600 pg/ml.

[3] = test system: IRF3 signaling pathway (IRF-inducible ISG54 promotor) in THP1-Lucia ISG cells; assay: THP1-Lucia ISG reporter assay: induction of IRF3-dependent luciferase activity; type: cell-based; details: Homo sapiens, PMA-differentiated cells, 18 h after stimulation, read-out: THP1 ISG: fold increase of IRF3-dependent luciferase activity over background; for fold induction at 10 µM: 10 μM compound
Procedure: The compounds were evaluated in the THP1-Lucia™ ISG (interferon stimulated genes) reporter assay to determine if the compounds activate the IRF3 signaling pathway. The THP1-Lucia™ cells (InvivoGen) express the secreted luciferase (Lucia) reporter gene under the control of an IRF-inducible promotor. The reporter cell line was developed from human monocytic leukemia THP-1 cells.
as §1, §2

[4] = test system: CXCL10 secretion by CT26 cells; assay: RIG-I dependent CXCL10 secretion by CT26 colon carcinoma cells (ELISA); type: cell-based, murine; details: 24 h
Procedure: as §3, §4, §5

SMILES	CXCL10 secretion by CT26 RIG-I −/− cells ([2]; 10 μM compound)	CXCL10 secretion by CT26 cells ([4]; 10 μM compound)	fold induction at 10 µM [1]	fold induction at 10 µM [3]	also measured
O=C(Nc1nc2ccc(SC(F)F)cc2s1)c1cc2ccccc2cc1OCCN1CCOCC1 [Example 48, N-{6-[(difluoromethyl)sulfanyl]-1,3-benzothiazol-2-yl}-3-[2-(morpholin-4-yl)ethoxy]naphthalene-2-carboxamide]	− (“−” indicates less than 100 pg/mL)	++ (“++” indicates 200-399 pg/mL)			fold induction at 20 µM ([1]; 20 μM compound (*)): < 2.4; fold induction at 20 µM ([3]; 20 μM compound (*)): 2.4 to 4.9
O=C(Nc1nc2ccc(S(=O)(=O)N3CCC3)cc2s1)c1cc2ccccc2cc1OCCCCN1CCOCC1 [Example 36, N-[6-(azetidine-1-sulfonyl)-1,3-benzothiazol-2-yl]-3-[4-(morpholin-4-yl)butoxy]naphthalene-2-carboxamide]	− (“−” indicates less than 100 pg/mL)	+++ (“+++” indicates 400-799 pg/mL)	< 2.4	10 to 19	
O=C(Nc1nc2ccc(S(=O)(=O)N3CCCC3)cc2s1)c1ccc(-c2ccccc2)cc1OCCN1CCOCC1 [Example 47, 3-[2-(morpholin-4-yl)ethoxy]-N-[6-(pyrrolidine-1-sulfonyl)-1,3-benzothiazol-2-yl]-[1,1′-biphenyl]-4-carboxamide]	− (“−” indicates less than 100 pg/mL)	+++ (“+++” indicates 400-799 pg/mL)	< 2.4	≥ 40	
O=C(Nc1nc2ccc(S(=O)(=O)N3CCCC3)cc2s1)c1cc2ccccc2cc1OCCN1CC2CCC1CO2 (centres unmarked) [Example 88, 3-(2-{2-oxa-5-azabicyclo[2.2.2]octan-5-yl}ethoxy)-N-[6-(pyrrolidine-1-sulfonyl)-1,3-benzothiazol-2-yl]naphthalene-2-carboxamide]			< 2.4	20 to 39	
O=C(Nc1nc2ccc(S(=O)(=O)N3CCCC3)cc2s1)c1cc2ccccc2cc1OCCN1CCC(F)(F)CC1 [Example 79, 3-[2-(4,4-difluoropiperidin-1-yl)ethoxy]-N-[6-(pyrrolidine-1-sulfonyl)-1,3-benzothiazol-2-yl]naphthalene-2-carboxamide]					CXCL10 secretion by CT26 RIG-I −/− cells ([2]; 5 μM compound (**)): −** (“−” indicates less than 100 pg/mL); CXCL10 secretion by CT26 cells ([4]; 5 μM compound (**)): +** (“+” indicates 100-199 pg/mL)
COCC1CN(CCOc2cc3ccccc3cc2C(=O)Nc2nc3ccc(S(=O)(=O)N4CCCC4)cc3s2)CCO1 (centres unmarked) [Example 87, 3-{2-[2-(methoxymethyl)morpholin-4-yl]ethoxy}-N-[6-(pyrrolidine-1-sulfonyl)-1,3-benzothiazol-2-yl]naphthalene-2-carboxamide]			< 2.4	20 to 39	
O=C(Nc1cc2ccc(S(=O)(=O)N3CCC3)cc2s1)c1cc2ccccc2cc1OCCCCN1CCOCC1 [Example 86, N-(6-(azetidin-1-ylsulfonyl)benzo[b]thiophen-2-yl)-3-(4-morpholinobutoxy)-2-naphthamide]			< 2.4	20 to 39	
O=C(Nc1nc2ccc(S(=O)(=O)N3CCCC3)cc2s1)c1cc2ccccc2cc1OCCN1C[C@H]2C[C@@H]1CO2 [Example 90]			< 2.4	20 to 39	
O=C(Nc1nc2ccc(S(=O)(=O)N3CCCC3)cc2s1)c1cc2ccccc2cc1OCCN1CC2CC(C1)O2 [Example 89, 3-(2-{6-oxa-3-azabicyclo[3.1.1]heptan-3-yl}ethoxy)-N-[6-(pyrrolidine-1-sulfonyl)-1,3-benzothiazol-2-yl]naphthalene-2-carboxamide]			< 2.4	10 to 19	
O=C(Nc1nc2ccc(S(=O)(=O)N3CCCC3)cc2s1)c1cc2c(cc1OCCN1CCOCC1)CCC2 [Example 91, 6-[2-(morpholin-4-yl)ethoxy]-N-[6-(pyrrolidine-1-sulfonyl)-1,3-benzothiazol-2-yl]-2,3-dihydro-1H-indene-5-carboxamide]			< 2.4	10 to 19	
